According to paper PMC12670396, “Crizotinib- or Ceritinib-Conjugated Platinum(IV) Prodrugs As Potent Multiaction Agents Inducing Antiproliferative Effects in 2D and 3D Cancer Cell Models” (Journal of Medicinal Chemistry, 2025):

Key:
NCI-H2228 cells [1] = assay: Cell death mode (Annexin V/PI, flow cytometry); type: cell-based, human; details: NCI-H2228, 3 × IC50, 48 h
From the text: Flow cytometric analysis was used to assess the mode of cell death induced in NCI-H2228 cells by the tested complexes. Annexin V staining was employed to recognize the externalization of phosphatidyl serine, a feature considered an apoptotic marker. Propidium iodide (PI) was used to stain cells with compromised cell membranes (a sign of necrosis). Staurosporine was included in the experiment as a positive control for apoptosis. […] Apoptosis appears to be the leading mode of cell death in the entire group of tested compounds, with a varying distribution of cell populations between early and late apoptosis.
Staurosporine (4 μM; 2 h) was used as a positive control of apoptosis. The cells were then harvested with trypsin and stained with Annexin V-Pacific Blue conjugate (1:20 dilution) and PI (10 μg mL^–1) for 15 min. The samples were analyzed with flow cytometry (FACS Verse), 3 × 10^4 cells were analyzed following the exclusion of cell aggregates, and the data was analyzed with FCS Express 7 (DeNovo software, Glendale, CA).

NCI-H2228 cells [2] = assay: Cell cycle distribution (PI, flow cytometry); type: cell-based, human; details: NCI-H2228, 2 × IC50, 48 h
Protocol: The alterations in cell cycle profiles caused by the tested agents in NCI-H2228 cells may offer insight into their anticancer mechanism. To examine these changes, we utilized flow cytometry to analyze the cells treated with the representative agents (Figure and Figure S40).
It appears that the G2/M arrest is a common phenomenon in the crizotinib-containing group of NCI-H2228 cells under the conditions used.
Following 48 h of incubation, the cells were harvested and fixed with 70% ethanol. The next day, the cells were washed with PBS (2×) and stained with propidium iodide (PI) (50 μg mL^–1 with 100 μg mL^–1 RNase A) in Vindel’s solution (10 mM Tris-Cl (pH = 8.0), 10 mM NaCl, 0.1% Triton X-100) for 30 min at 37 °C. Cell cycle distribution was analyzed using flow cytometry (FACS Verse), 3 × 10^4 cells were analyzed following the exclusion of cell aggregates, and the data was analyzed with FCS Express 7 (DeNovo software, Glendale, CA). The results are expressed as MEAN from two experiments.

[3] = Stability in RPMI cell culture medium with serum (HPLC); details: serum
Protocol: Two conditions must be met for Pt(IV) complexes to serve as true prodrugs: they must remain stable in biological fluids and should be activated by reduction within the cancer cells to release the bioactive components in their active form, thereby facilitating the rapid onset of cytotoxic effects. […] The reduction in the area of the HPLC peak of the compounds was monitored as a function of time, and their half-lives were calculated (Table and Figures S26,S27).
The stock solutions were prepared by dissolving the compounds in a 1:9 (v/v) mixture of DMSO and RPMI media. After preparation, the samples were injected and stored at 37 °C throughout the experiment. The final concentration of the complexes used for the experiment is 50–60 μM.

[4] = Reduction by L-ascorbic acid in phosphate buffer (RP-HPLC); type: physicochemical
Protocol: The reduction of Pt(IV) complexes was performed by reacting with 10 equiv of L-ascorbic acid in 10% DMSO in 100 mM phosphate buffer (pH 7.4) at 37 °C, and was monitored by reverse-phase analytical HPLC. The half-lives for the reduction were calculated from the decreasing peak areas as a function of time.
The reduction of the Pt(IV) complexes was performed in the presence of 10 equiv of L-ascorbic acid (AA) in phosphate buffer (100 mM, pH 7.4) at 37 °C using reverse-phase analytical HPLC. […] The platinum complexes were dissolved in 10% DMSO with 50% MeOH and added to 100 mM phosphate buffer (pH 7.4). […] The samples were injected and stored at 37 °C throughout the experiment.

MET = target: T1, MET (Homo sapiens, UniProt P08581); assay: Western blot of MET phosphorylation state; type: cell-based; details: NCI-H2228 lysates, IC50 concentrations, 24 h
T1 construct: Western blot analysis of the phosphorylation state of ALK and MET; endogenous in cells; host or cells: NCI-H2228
T1 sequence (P08581 25-1390): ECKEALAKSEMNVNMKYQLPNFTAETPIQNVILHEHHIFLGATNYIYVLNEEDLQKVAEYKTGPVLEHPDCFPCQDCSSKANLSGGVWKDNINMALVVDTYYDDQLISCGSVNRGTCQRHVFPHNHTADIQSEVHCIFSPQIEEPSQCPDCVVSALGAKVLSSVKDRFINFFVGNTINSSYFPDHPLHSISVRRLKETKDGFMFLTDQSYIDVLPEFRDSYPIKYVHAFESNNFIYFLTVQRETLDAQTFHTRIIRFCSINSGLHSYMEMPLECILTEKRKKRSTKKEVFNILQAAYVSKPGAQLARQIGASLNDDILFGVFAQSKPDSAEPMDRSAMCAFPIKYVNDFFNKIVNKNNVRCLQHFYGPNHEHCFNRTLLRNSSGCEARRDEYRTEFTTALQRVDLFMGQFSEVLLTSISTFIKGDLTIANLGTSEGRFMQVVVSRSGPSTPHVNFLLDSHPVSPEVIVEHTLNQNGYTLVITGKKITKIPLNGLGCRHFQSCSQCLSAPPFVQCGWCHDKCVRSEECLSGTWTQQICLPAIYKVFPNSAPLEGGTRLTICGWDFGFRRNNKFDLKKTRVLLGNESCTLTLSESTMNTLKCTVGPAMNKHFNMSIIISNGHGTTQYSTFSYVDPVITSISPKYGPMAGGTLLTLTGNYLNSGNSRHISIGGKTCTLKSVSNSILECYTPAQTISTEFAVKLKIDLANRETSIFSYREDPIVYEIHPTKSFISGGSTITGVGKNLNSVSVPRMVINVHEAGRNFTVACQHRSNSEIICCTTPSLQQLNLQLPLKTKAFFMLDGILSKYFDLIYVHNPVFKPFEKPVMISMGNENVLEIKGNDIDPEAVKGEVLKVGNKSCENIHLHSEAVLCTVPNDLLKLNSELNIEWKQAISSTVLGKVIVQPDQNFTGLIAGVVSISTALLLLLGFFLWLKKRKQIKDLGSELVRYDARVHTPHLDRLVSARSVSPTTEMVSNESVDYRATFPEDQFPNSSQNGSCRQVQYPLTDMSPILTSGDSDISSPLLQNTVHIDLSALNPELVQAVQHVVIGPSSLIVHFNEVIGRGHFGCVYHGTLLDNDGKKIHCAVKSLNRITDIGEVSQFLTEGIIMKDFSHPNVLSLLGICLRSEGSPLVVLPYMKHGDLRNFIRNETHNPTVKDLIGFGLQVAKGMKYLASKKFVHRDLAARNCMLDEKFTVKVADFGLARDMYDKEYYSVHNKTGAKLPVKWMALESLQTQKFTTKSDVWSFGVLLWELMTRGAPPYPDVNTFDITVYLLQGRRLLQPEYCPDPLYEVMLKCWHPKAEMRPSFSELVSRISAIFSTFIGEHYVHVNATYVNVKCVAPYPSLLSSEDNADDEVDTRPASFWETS
Protocol: (§1) Whereas the signals of pALK and pMET are decreased in the presence of the tested compounds, the overall amount of ALK and MET is not markedly changed.
(§2) NCI-H2228 cells were seeded in 6-well plates at a density of 2 × 10^5 cells/well and incubated overnight. […] The cells were then harvested and lysed using RIPA lysis buffer supplemented with protease and phosphatase inhibitors as recommended by the manufacturer. Protein extracts were resolved with SDS-PAGE, transferred to a PVDF membrane, and the respective proteins were detected with specific antibodies (anti-phosphoALK, anti-ALK, anti-phosphoMET, anti-MET, and anti-GADPH) and HRP-conjugated secondary antibodies. The signals were obtained with SignalFire ECL Reagent and recorded with an Amersham680 reader.

CT26 or NCI-H2228 cells = assay: Release of ATP (CLSII bioluminescence assay); type: cell-based; details: IC50 concentrations, 20 h
Protocol: ATP release was analyzed using the CLSII bioluminescence assay kit (Roche) after treatment of CT26 or NCI-H2228 cells with the tested compounds at concentrations corresponding to their respective IC50 values (Figure A).
CT26 and NCI-H2228 cells were seeded in 48-well plates at a density of 5 × 10^4 cells/well and grown overnight. […] Then 50 μL of supernatant from the wells was transferred into a 96-well white plate (Corning) and processed using an ATP bioluminescence assay kit CLSII following the manufacturer’s instructions. Luminescence was measured with a SPARK multimode reader (TECAN).

HCT116 = assay: MTT cytotoxic/antiproliferative activity, 72 h; type: cell-based, human; details: for IC50: HCT116, MTT, 72 h
[5] = test system: hepatocyte-like cells (HLC); assay: Cytotoxicity in hepatocyte-like cells, sulphorhodamine B assay; type: cell-based; details: hepatocyte-like cells from human pluripotent cells
Protocol: Growth inhibition activity in cancer cell lines was compared with the activity to inhibit the proliferation of normal (noncancerous) cells, namely MRC-5, IMR-90, hTERT-HPNE, and MCF10A cells. Selectivity indexes (SI) were calculated as (IC50 in noncancerous cells)/(average IC50 in cancer cells). […] We further assessed the toxicity of several of the compounds in hepatocyte-like cells (HLC) generated from human pluripotent cells.
Cytotoxicity in hepatocyte-like cells (HLC). STEMdiff Hepatocyte Kit was used to generate HLC from human pluripotent stem cells. Cytotoxicity of several of the tested compounds in HLC was evaluated using the sulphorhodamine B assay.

ALK = target: T2, ALK (Homo sapiens, UniProt Q9HC35+Q9UM73); assay: Western blot of ALK phosphorylation state; type: cell-based; details: NCI-H2228 lysates, IC50 concentrations, 24 h
T2 construct: Western blot detection of the ALK phosphorylation state in lysates of NCI-H2228 cells exposed to the tested compounds; endogenous in cells; host or cells: NCI-H2228
T2 sequence (Q9HC35+Q9UM73 fused): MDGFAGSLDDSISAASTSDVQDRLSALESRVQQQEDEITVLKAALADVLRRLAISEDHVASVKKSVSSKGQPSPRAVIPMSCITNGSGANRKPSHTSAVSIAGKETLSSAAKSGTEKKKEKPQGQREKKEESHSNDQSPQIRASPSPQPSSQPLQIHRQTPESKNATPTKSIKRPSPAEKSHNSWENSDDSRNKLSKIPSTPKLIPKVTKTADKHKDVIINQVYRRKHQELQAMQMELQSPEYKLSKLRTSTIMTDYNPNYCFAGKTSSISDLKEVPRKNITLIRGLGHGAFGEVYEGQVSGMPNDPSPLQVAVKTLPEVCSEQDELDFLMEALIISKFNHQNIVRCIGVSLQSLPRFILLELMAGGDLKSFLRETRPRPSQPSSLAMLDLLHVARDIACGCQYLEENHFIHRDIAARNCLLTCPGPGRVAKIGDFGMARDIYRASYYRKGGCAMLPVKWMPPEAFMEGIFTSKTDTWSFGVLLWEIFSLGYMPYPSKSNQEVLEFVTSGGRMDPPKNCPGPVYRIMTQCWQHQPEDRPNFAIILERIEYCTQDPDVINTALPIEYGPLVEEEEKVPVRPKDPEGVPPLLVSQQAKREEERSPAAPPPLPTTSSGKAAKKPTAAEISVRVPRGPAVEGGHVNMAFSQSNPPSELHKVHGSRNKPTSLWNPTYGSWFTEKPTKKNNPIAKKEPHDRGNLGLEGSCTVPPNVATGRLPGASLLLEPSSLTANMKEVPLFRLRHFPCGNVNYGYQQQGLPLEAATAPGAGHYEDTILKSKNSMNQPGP
Protocol: as §1, §2

SMILES: Cc1cc(Nc2ncc(Cl)c(Nc3ccccc3S(=O)(=O)C(C)C)n2)c(OC(C)C)cc1C1CCN(C(=O)[O][Pt]([Cl])([Cl])[O]C(=O)CCCc2ccccc2)CC1.N.N [compound 7, ctc-[Pt(NH3)2(ceritinib)(PhB)Cl2]]
- mode of cell death (NCI-H2228 cells [1]): apoptotic phenotype
- cell cycle arrest (NCI-H2228 cells [2]): majority of the population in cells treated with 7 was in the S phase
- stability half-life (t 1/2) [3]: 37 h
- solubility in phosphate buffer ([4]; 100 mM phosphate buffer pH 7.4): poor solubility
- phosphorylation of MET (MET): inhibit the phosphorylation
- ATP released to the medium relative to nontreated cells (CT26 or NCI-H2228 cells): 2.7 fold
- IC50 (HCT116): 0.19 ± 0.06 µM
- IC50(MIX)/IC50(complex) (HCT116; HCT116, MIX3/3 or MIX7/7): 3.1
- IC50 [5]: 4 ± 1 µM
- phosphorylation of ALK (ALK): inhibit the phosphorylation

SMILES: CC(Oc1cc(-c2cnn(C3CCN(C(=O)[O][Pt]([Cl])([Cl])[O]C(=O)CCCc4ccccc4)CC3)c2)cnc1N)c1c(Cl)ccc(F)c1Cl.N.N (centres unmarked) [compound 3, ctc-[Pt(NH3)2(crizotinib)(PhB)Cl2]]
- mode of cell death (NCI-H2228 cells [1]): apoptotic phenotype
- cell cycle arrest (NCI-H2228 cells [2]): induced arrest in the G2/M phase
- stability half-life (t 1/2) [3]: 42 h
- reduction half-life (t 1/2) ([4]; 10 equiv L-ascorbic acid, 10% DMSO in 100 mM phosphate buffer pH 7.4, 37 °C): 7.7 h
- IC50 (HCT116): 0.57 ± 0.09 µM
- IC50 [5]: 5 ± 1 µM

SMILES: N.N.[Cl][Pt][Cl] [cisPt, cisplatin, reference compound]
- phosphorylation of MET (MET): no visible effect
- ATP released to the medium relative to nontreated cells (CT26 or NCI-H2228 cells): did not induce a significant release of ATP
- IC50 (HCT116): 8.8 ± 0.5 µM
- phosphorylation of ALK (ALK): no visible effect
